One series concerns the target T1, human EGF-receptor kinase (Homo sapiens, UniProt P00533).
T1 construct: GST; made in house; host or cells: Sf9 insect cells (baculovirus)
Nature of the series: Inhibition of human EGF-receptor kinase (enzyme assay, ELISA read-out). It is filed as biochemical. To be noted: cytoplasmic tyrosine kinase domain as GST fusion protein, substrate pEY/bio-pEY, 30 minutes at ambient temperature. The protocol:
The inhibition of human EGF-receptor kinase was determined using the cytoplasmic tyrosine kinase domain (methionine 664 to alanine 1186 based on the sequence published in Nature 309 (1984), 418). For this the protein was expressed in Sf9 insect cells as GST fusion protein using the Baculovirus expression system.
The enzyme activity was measured in the presence or absence of the test compounds in serial dilutions. The polymer pEY (4:1) obtained from SIGMA was used as the substrate. Biotinylated pEY (bio-pEY) was added as the tracer substrate. 100 μl of reaction solution contained 10 μl of the inhibitor in 50% DMSO, 20 μl of the substrate solution (200 mM HEPES pH 7.4, 50 mM magnesium acetate, 2.5 mg/ml poly(EY), 5 μg/ml bio-pEY) and 20 μl of enzyme preparation. The enzyme reaction was started by the addition of 50 μl of a 100 μM ATP solution in 10 mM of magnesium chloride. The dilution of the enzyme preparation was adjusted so that the incorporation of phosphate in the bio-pEY was linear in terms of time and quantity of enzyme. The enzyme preparation was diluted in 20 mM HEPES pH 7.4, 1 mM EDTA, 130 mM common salt, 0.05% Triton X-100, 1 mM DTT and 10% glycerol.
The enzyme assays were carried out at ambient temperature over a period of 30 minutes and ended by the addition of 50 μl of a stopping solution (250 mM EDTA in 20 mM HEPES pH 7.4). 100 μl were placed on a streptavidine-coated microtitre plate and incubated for 60 minutes at ambient temperature. Then the plate was washed with 200 μl of a wash solution (50 mM Tris, 0.05% Tween 20). After the addition of 100 μl of an HRPO-labelled anti-PY antibody (PY20H Anti-PTyr:HRP made by Transduction Laboratories, 250 ng/ml) the preparation was incubated for 60 minutes. Then the microtitre plate was washed three times with 200 μl of wash solution. The samples were then combined with 100 μl of a TMB-peroxidase solution (A:B=1:1, Kirkegaard Perry Laboratories). After 10 minutes the reaction was stopped. The extinction was measured at OD450 nm with an ELISA reader. All the results were measured three times.
The data were adapted by iterative calculation using an analytical pogramme for sigmoidal curves (Graph Pad Prism Version 3.0) with a variable Hill pitch. […] The active substance concentration which inhibits the activity of EGF receptor kinase by 50% (IC50) was derived from the curves.
A general note: In an ELISA, binding on a coated surface is turned into a signal by an enzyme label.
T1 sequence (P00533 688-1210): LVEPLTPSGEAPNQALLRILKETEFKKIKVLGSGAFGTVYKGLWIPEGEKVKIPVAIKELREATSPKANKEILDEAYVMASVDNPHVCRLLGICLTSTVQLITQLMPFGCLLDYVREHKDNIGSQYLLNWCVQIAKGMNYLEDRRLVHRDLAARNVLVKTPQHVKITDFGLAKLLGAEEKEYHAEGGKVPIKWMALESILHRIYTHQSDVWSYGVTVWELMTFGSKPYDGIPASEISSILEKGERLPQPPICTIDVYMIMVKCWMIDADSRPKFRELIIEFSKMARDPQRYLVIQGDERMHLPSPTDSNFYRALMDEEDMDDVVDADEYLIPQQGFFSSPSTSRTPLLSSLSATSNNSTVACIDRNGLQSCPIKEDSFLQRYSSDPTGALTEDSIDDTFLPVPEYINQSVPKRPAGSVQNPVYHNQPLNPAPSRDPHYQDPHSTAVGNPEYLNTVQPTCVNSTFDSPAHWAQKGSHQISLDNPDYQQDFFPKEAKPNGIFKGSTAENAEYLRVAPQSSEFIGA
Broadly, the IC50 is the concentration that inhibits the measured activity by half. Take `COCC(=O)N1CCC(Oc2cc3c(Nc4ccc(F)c(Cl)c4)ncnc3cc2OC)CC1` [3(8), 4-[(3-chloro-4-fluoro-phenyl)amino]-6-{1-[(methoxymethyl)carbonyl]-piperidin-4-yloxy}-7-methoxy-quinazoline]: the IC50 came to 0.6 nM.
Still for that read-out and setting: for `COCCOc1cc2ncnc(Nc3ccc(F)c(Cl)c3)c2cc1OC1CCOCC1` [7(5), 4-[(3-chloro-4-fluoro-phenyl)amino]-6-(tetrahydropyran-4-yloxy)-7-(2-methoxy-ethoxy)-quinazoline] the value was 1 nM; for `COc1cc2ncnc(Nc3ccc(F)c(Cl)c3)c2cc1O[C@H]1CC[C@@H](NC(=O)OC(C)(C)C)CC1` [1(2), 4-[(3-chloro-4-fluoro-phenyl)amino]-6-[cis-4-(tert.-butyloxycarbonylamino)-cyclohexan-1-yloxy]-7-methoxy-quinazoline], 2 nM.
The same measure, in the same setting: for `COc1cc2ncnc(Nc3ccc(F)c(Cl)c3)c2cc1OC1CCN(C(=O)N2CCOCC2)CC1` [3(7), 4-[(3-chloro-4-fluoro-phenyl)amino]-6-{1-[(morpholin-4-yl)carbonyl]-piperidin-4-yloxy}-7-methoxy-quinazoline] the value was 0.7 nM.
With `COc1cc2ncnc(Nc3ccc(F)c(Cl)c3)c2cc1OC1CCCOC1` (stereo not shown) [1(6), 4-[(3-chloro-4-fluoro-phenyl)amino]-6-(tetrahydropyran-3-yloxy)-7-methoxy-quinazoline], the concentration for half-maximal inhibition (IC50) was 0.69 nM.
Regarding `CC(=O)NCCOc1cc2ncnc(Nc3ccc(F)c(Cl)c3)c2cc1OC1CCOCC1` [3(20), 4-[(3-chloro-4-fluoro-phenyl)amino]-6-(tetrahydropyran-4-yloxy)-7-(2-acetylamino-ethoxy)-quinazoline], the IC50 came to 1 nM.
On the same count and under the same terms, for `COc1cc2ncnc(Nc3ccc(F)c(Cl)c3)c2cc1O[C@H]1CC[C@H](NS(=O)(=O)N(C)C)CC1` [3(16), 4-[(3-chloro-4-fluoro-phenyl)amino]-6-{trans-4-[(dimethylamino)sulphonylamino]-cyclohexan-1-yloxy}-7-methoxy-quinazoline] the value was 1 nM.
Turning to `COc1cc2ncnc(Nc3ccc(F)c(Cl)c3)c2cc1O[C@H]1CC[C@H](NC(=O)N2CCOCC2)CC1` [3(17), 4-[(3-chloro-4-fluoro-phenyl)amino]-6-{trans-4-[(morpholin-4-yl)carbonylamino]-cyclohexan-1-yloxy}-7-methoxy-quinazoline], the IC50 came out at 0.3 nM.
Still for that read-out and setting: the result for `COc1cc2ncnc(Nc3ccc(F)c(Cl)c3)c2cc1O[C@H]1CC[C@H](NS(=O)(=O)N2CCOCC2)CC1` [3(18), 4-[(3-chloro-4-fluoro-phenyl)amino]-6-{trans-4-[(morpholin-4-yl)sulphonylamino]-cyclohexan-1-yloxy}-7-methoxy-quinazoline] reads 0.4 nM; that for `COc1cc2ncnc(Nc3ccc(F)c(Cl)c3)c2cc1O[C@H]1CC[C@H](N)CC1` [2(1), 4-[(3-chloro-4-fluoro-phenyl)amino]-6-(trans-4-amino-cyclohexan-1-yloxy)-7-methoxy-quinazoline], 0.16 nM; that for `COc1cc2ncnc(Nc3ccc(F)c(Cl)c3)c2cc1O[C@@H]1CCOC1` [1(3), 4-[(3-chloro-4-fluoro-phenyl)amino]-6-((R)-tetrahydrofuran-3-yloxy)-7-methoxy-quinazoline], 1.1 nM.
Same read-out and setting: for `COc1cc2ncnc(Nc3ccc(F)c(Cl)c3)c2cc1OC1CCNCC1` [Example 2(2), 4-[(3-chloro-4-fluoro-phenyl)amino]-6-(piperidin-4-yloxy)-7-methoxy-quinazoline x trifluoroacetic acid] the value was 0.22 nM.
With `COc1cc2ncnc(Nc3ccc(F)c(Cl)c3)c2cc1OC1CCOCC1` [1(1), 4-[(3-chloro-4-fluoro-phenyl)amino]-6-(tetrahydropyran-4-yloxy)-7-methoxy-quinazoline], the IC50 came to 0.12 nM.
On the same count and under the same terms, the result for `COc1cc2ncnc(Nc3ccc(F)c(Cl)c3)c2cc1O[C@H]1CC[C@H](NC(=O)OC(C)(C)C)CC1` [1(4), 4-[(3-chloro-4-fluoro-phenyl)amino]-6-[trans-4-(tert.-butyloxycarbonylamino)-cyclohexan-1-yloxy]-7-methoxy-quinazoline] reads 0.6 nM; that for `COc1cc2ncnc(Nc3ccc(F)c(Cl)c3)c2cc1O[C@H]1CC[C@H](NS(=O)(=O)CCCN2CCOCC2)CC1` [4(1), 4-[(3-chloro-4-fluoro-phenyl)amino]-6-(trans-4-{[3-(morpholin-4-yl)-propyl]sulphonylamino}-cyclohexan-1-yloxy)-7-methoxy-quinazoline], 0.16 nM.
Same read-out and setting: for `CS(=O)(=O)NCCOc1cc2ncnc(Nc3ccc(F)c(Cl)c3)c2cc1OC1CCOCC1` [3(21), 4-[(3-chloro-4-fluoro-phenyl)amino]-6-(tetrahydropyran-4-yloxy)-7-(2-methanesulphonylamino-ethoxy)-quinazoline] the value was 0.4 nM; for `COc1cc2ncnc(Nc3ccc(F)c(Cl)c3)c2cc1OC1CCN(C(=O)OC(C)(C)C)CC1` [1(5), 4-[(3-chloro-4-fluoro-phenyl)amino]-6-[1-(tert.-butyloxycarbonyl)-piperidin-4-yloxy]-7-methoxy-quinazoline], 0.6 nM.
Consider `COc1cc2ncnc(Nc3ccc(F)c(Cl)c3)c2cc1OC1CCN(CCNC(C)=O)CC1` [3(15), 4-[(3-chloro-4-fluoro-phenyl)amino]-6-[1-(2-acetylamino-ethyl)-piperidin-4-yloxy]-7-methoxy-quinazoline], for which the IC50 stood at 1 nM.
As to `COc1cc2ncnc(Nc3ccc(F)c(Cl)c3)c2cc1OC1CCN(S(C)(=O)=O)CC1` [3(2), 4-[(3-chloro-4-fluoro-phenyl)amino]-6-(1-methanesulphonyl-piperidin-4-yloxy)-7-methoxy-quinazoline], the half-maximal inhibitory concentration (IC50) worked out at 0.22 nM.
On the same count and under the same terms, the result for `COc1cc2ncnc(Nc3ccc(F)c(Cl)c3)c2cc1O[C@H]1CC[C@H](NS(C)(=O)=O)CC1` [3(1), 4-[(3-chloro-4-fluoro-phenyl)amino]-6-(trans-4-methanesulphonylamino-cyclohexan-1-yloxy)-7-methoxy-quinazoline] reads 0.14 nM.
In the case of `COc1cc2ncnc(Nc3ccc(F)c(Cl)c3)c2cc1OC1CCN(C#N)CC1` [3(9), 4-[(3-chloro-4-fluoro-phenyl)amino]-6-(1-cyano-piperidin-4-yloxy)-7-methoxy-quinazoline], the IC50 stood at 0.2 nM.
The same measure, in the same setting: for `COc1cc2ncnc(Nc3ccc(F)c(Cl)c3)c2cc1O[C@H]1CC[C@@H](NS(=O)(=O)CCCN2CCOCC2)CC1` [Example 4, 4-[(3-chloro-4-fluoro-phenyl)amino]-6-(cis-4-{[3-(morpholin-4-yl)-propyl]sulphonylamino}-cyclohexan-1-yloxy)-7-methoxy-quinazoline] the value was 0.41 nM.
Same read-out and setting: for `COc1cc2ncnc(Nc3ccc(F)c(Cl)c3)c2cc1OC1CCN(S(=O)(=O)N2CCOCC2)CC1` [3(11), 4-[(3-chloro-4-fluoro-phenyl)amino]-6-{1-[(morpholin-4-yl)sulphonyl]-piperidin-4-yloxy}-7-methoxy-quinazoline] the value was 0.1 nM.

System in a further series: not given
Experiment: not given
Conditions: not given
What is called melting point is the temperature, or range, at which the solid turns liquid. In the case of `COc1cc2ncnc(Nc3ccc(F)c(Cl)c3)c2cc1O[C@H]1CCNC1.Cl.Cl`, the melting point came to 251 °C.
On the same count and under the same terms, the result for `CN(C)C(=O)CN1CCC(Oc2ccc3ncnc(Nc4ccc(F)c(Cl)c4)c3c2)CC1` [Example 10, 4-[(3-chloro-4-fluoro-phenyl)amino]-6-{1-[(dimethylamino)carbonylmethyl]-piperidin-4-yloxy}-quinazoline] reads 233 °C.

Values taken from patent US6924285B2, “Bicyclic heterocyclic compounds, pharmaceutical compositions containing these compounds, their use and process for preparing them” (Boehringer Ingelheim Pharma GmbH & Co., priority 2002, dated 2005).
